In patent US20080058373A1, “Compositions and Methods for Treating or Preventing Glaucoma or Progression Thereof” (priority 2006, published 2008):
Where “and” joins values, the source holds several entries; their conditions need not be identical. Identical values can stand only once.

What was measured:
protein in aqueous humor = experiment: Protein measurement in aqueous humor, rabbit paracentesis model; format: in vivo; conditions: for Protein levels in aqueous humor, Mean: second paracentesis, group mean
Protocol: (§1) Each rabbit was placed in a restraint device and tagged with the alphanumeric code. The formulations were instilled (50 μl) into the conjunctival sac of both eyes 180, 120, 90 and 30 min before the first paracentesis; then 15, 30, 90 min after the first paracentesis. To perform the first paracentesis the animals were anaesthetized by intravenous injection of 5 mg/kg Zoletil® (Virbac; 2.5 mg/kg tiletamine HCl and 2.5 mg/kg zolazepam HCl) and one drop of local anesthetic (Novesina®, Novartis) was administered to the eye. Anterior chamber paracentesis was performed with a 26 G needle attached to a tuberculin syringe; the needle was introduced into the anterior chamber through the cornea, taking care not to damage the tissues. Two hours after the first paracentesis, the animals were sacrificed with 0.4 ml Tanax® (Intervet International B.V.) and the second paracentesis was performed. About 100 μl of aqueous humor were removed at the second paracentesis. Aqueous humor was immediately split in four aliquots and stored at −80° C. until analysis. Then both eyes were enucleated and the iris-ciliary body was carefully excised, placed in polypropylene tubes, and stored at −80° C. until analysis.
For protein concentration determination in the aqueous humor we used the Protein Quantification Kit (Fluka; Cat.No. 77371; Lot.No. 1303129). Five microliters of aqueous humor were diluted to 100 μl with water. Twenty microliters of samples and of standards were load into a 96-well plate and recorded in a plate layout. Samples were treated following the assay procedure described in the kit. A microplate reader (GDV, Italy; model DV 990 B/V6) set at 670 nm was used for making the calibration and analyzing the samples.

[1] = system: primary human corneal epithelial cells; experiment: IL-1β-stimulated cytokine production in primary HCECs (30-cytokine Luminex kit)
Protocol: Primary HCECs were seeded in 24-well plates. […] Each treatment was performed in triplicate. Media were collected and used for determination of cytokine content using a 30-cytokine Luminex kit. Cell viability was determined by alamarBlue assay (LP06013).
Median fluorescence intensity (MFI) was used to obtain the concentration of each cytokines in pg/ml based on the standard curve of each cytokine assayed by Luminex. The linear range of the standard curve for each cytokine was used for determination of cytokine concentration. Duplicate values for each sample were averaged. Data were expressed as mean±SD. Statistical analysis was performed using one-way ANOVA-Dunnett's test, and P<0.05 was considered statistically significant.

[2] = system: New Zealand White rabbits; experiment: Mortality/morbidity in the rabbit IOP study; format: in vivo; conditions: for Day of Death (day euthanized or found dead) / Recorded Notes (mortality): individual rabbits; for Mortality (animals found dead or euthanized prior to study completion/number of animals in group): topical right eye 4 × daily, Day 33; for Mortality: rabbits that died or were euthanized between Days 11 and 33: right eye four times daily, Days 1-31
Protocol: On Days 1-31, animals received daily topical doses of the appropriate test article into the right eye. Animals were dosed four times per day, with doses administered 2 hours apart. Doses were administered using a calibrated 50-μL pipette. The eyelids were held close for 10 seconds immediately following dosing. The time of each dose administration was recorded.
Animals determined to be moribund were euthanized with an intravenous injection of commercial euthanasia solution.

Prostaglandin E2 (PGE2) = Prostaglandin E2 (PGE2) measurement in aqueous humor, rabbit paracentesis model; format: in vivo; conditions: second paracentesis, group mean
Protocol: as §1
For the quantitative determination of PGE2 in the aqueous humor we used the PGE2 Immunoassay kit (R&D Systems; Cat.No. KGE004; Lot.No. 240010). Eleven microliters or 16 μl of aqueous humor were diluted to 110 μl or 160 μl with the calibrator diluent solution provided with the kit. One hundred microliters of samples and of standards were load into a 96-well plate and recorded in a plate layout. Samples were treated following the assay procedure described in the kit. A microplate reader (GDV, Italy; model DV 990 B/V6) set at 450 nm (wavelength correction at 540 nm) was used for making the calibration and analyzing the samples.

Myeloperoxidase (MPO) = Myeloperoxidase (MPO) activity in iris-ciliary body, rabbit paracentesis model; format: in vivo; conditions: for MPO activity in iris-ciliary body, Mean / MPO activity in iris-ciliary body: samples collected after the second paracentesis; for MPO activity in iris-ciliary body, Mean: group mean; for Δ/min (mean of the slope of the line recorded every 15 sec for 5 min): 100 μl supernatant aliquot diluted to 3 ml; for Δ/min (mean of the slope of the line recorded every 15 sec for 5 min) / MPO activity in iris-ciliary body: individual eyes, listed as BOL
Protocol: 3.9 g of NaH2PO4 2H2O were dissolved in a volumetric flask to 500 ml with water. The pH was adjusted to pH=6 with 3N NaOH.
0.5 g of hexa-decyl-trimethyl-ammonium bromide was dissolved in 100 ml phosphate buffer.
The solution was prepared freshly. Ten microliters of H2O2 (30 wt. %) were diluted to 1 ml with water (solution A). 7.5 mg o-dianisidine 2HCl was dissolved in 45 ml of phosphate buffer and 75 μl of solution A were added.
as §1
The activity of MPO was measured as previously described by Williams et al.[5] The iris-ciliary bodies were carefully dried, weighed and immersed in 1 ml of hexa-decyl-trimethyl-ammonium bromide solution. Then, the samples were sonicated for 10 sec on ice by a ultrasound homogenizer (HD 2070, Bandelin electronic), freeze-thawed three times, sonicated for 10 sec and centrifuged at 14,000 g for 10 min to remove cellular debris. An aliquot of the supernatant (40-200 μl) was diluted to 3 ml with the o-dianisidine 2HCl/H2O2 solution. The change in absorbance at 460 nm was continuously monitored for 5 min by a spectrophotometer (UV/Vis Spectrometer Lambda EZ 201; Perkin Elmer). The slope of the line (Δ/min) was determined for each sample and used to calculate the number of units of MPO in the tissue as follows:
Values were expressed as units of MPO/g of tissue.

[3] = system: rabbit eye (anterior chamber paracentesis); experiment: Pupillary diameter measurement, rabbit paracentesis model; format: in vivo; conditions: for Pupillary diameter T1: −180 min: 50 μl drops, −180 min (basal); for Pupillary diameter T1: −180 min / Pupillary diameter T2: −5 min / Pupillary diameter T3: +115 min: single eyes, listed as BOL; for Pupillary diameter T2: −5 min: 5 min before the first paracentesis; for Pupillary diameter T3: +115 min: 5 min before the second paracentesis; for Pupillary diameter Mean Δ(T3 − T1): group mean, n=8 eyes
Protocol: as §1
The pupillary diameter of both eyes was measured with a Castroviejo caliper 180 min and 5 min before the first paracentesis and 5 min before the second paracentesis.

[4] = system: rabbit eye (anterior chamber paracentesis); experiment: Clinical evaluation by slit lamp (clinical score), rabbit paracentesis model; format: in vivo; parameters: key to Clinical Score −180 min / Clinical Score −5 min / Clinical Score +115 min: 0=normal; 1=discrete dilatation of iris and conjunctival vessels; 2=moderate dilatation of iris and conjunctival vessels; 3=intense iridal hyperemia with flare in the anterior chamber; 4=intense iridal hyperemia with flare in the anterior chamber and presence of fibrinous exudates; conditions: for Clinical Score −5 min: 5 min before the first paracentesis; for Clinical Score −5 min / Clinical Score +115 min / Clinical Score −180 min: single eyes; for Clinical Score +115 min: 5 min before the second paracentesis
[5] = 10 ng/ml IL-1β-stimulated HCECs, 18 h, P<0.05
[6] = IL-1β-stimulated HCECs, 18 h, P<0.05
[7] = 1 mg/g (0.05 mg/dose) 4 × daily, Group D
[8] = 10 mg/g (0.5 mg/dose) 4 × daily, Group B
[9] = 0.1% topical, +115 min, N=8 eyes
[10] = 0.5% topical, +115 min, N=8 eyes

## Cc1ccc2c(NCC(O)(CC(C)(C)c3cc(F)cc4c3OCC4)C(F)(F)F)cccc2n1 (centres unmarked)
Protein in aqueous humor; 0.1% topical
  Protein levels in aqueous humor, Mean: 33.667 mg/mL
Protein in aqueous humor; 0.5% topical, samples collected at the second paracentesis, single eyes, listed as BOL
  Protein levels in aqueous humor (raw data): 33.98 mg/mL and 33.65 mg/mL and 19.99 mg/mL and 27.11 mg/mL and 19.72 mg/mL and 36.35 mg/mL and 27.71 mg/mL and 32.24 mg/mL
Protein in aqueous humor; 0.5% topical
  Protein levels in aqueous humor, Mean: 28.844 mg/mL
Protein in aqueous humor; 1% topical
  Protein levels in aqueous humor, Mean: 21.435 mg/mL
[1]; [5]
  Concentration at which a significant inhibitory effect was observed on IL-6: 1 nM
  Concentration at which a significant inhibitory effect was observed on MCP-1: 10 nM
  Concentration at which a significant inhibitory effect was observed on TGF-α: 10 nM
  Concentration at which a significant inhibitory effect was observed on TNF-α: 10 nM
[1]; IL-1β-stimulated HCECs
  Potency versus dexamethasone for inhibition of G-CSF production: more potent than dexamethasone
  Potency versus dexamethasone for inhibition of GM-CSF, IL-8 and RANTES production: somewhat less potent than dexamethasone
  Potency versus dexamethasone for inhibition of IL-6, IL-7, TGF-α, TNF-α, VGEF and MCP-1 production: comparable potency
[1]; IL-1β-stimulated HCECs, 18 h
  Inhibition of IL-1β-stimulated production of 6 cytokines (IL-6, IL-7, MCP-1, TGF-α, TNF-α and VEGF): significantly inhibited
[1]; [6]
  Concentration at which a significant inhibitory effect was observed on G-CSF: 10 µg/mL
  Concentration at which a significant inhibitory effect was observed on GM-CSF: 10 nM
  Concentration at which a significant inhibitory effect was observed on RANTES: no significant effect
[2]; [7]
  Day of Death (day euthanized or found dead): 29
  Recorded Notes (mortality): Found dead.
[2]; 1 mg/g, 0.05 mg/dose
  Mortality (animals found dead or euthanized prior to study completion/number of animals in group): 1/10^(6)
[2]; 5 mg/g suspension ([…])
  Mortality: rabbits that died or were euthanized between Days 11 and 33: two of ten
[2]; 5 mg/g, […]
  Mortality (animals found dead or euthanized prior to study completion/number of animals in group): 2/10^(5)
[2]; [8]
  Day of Death (day euthanized or found dead): 11
  Recorded Notes (mortality): Found dead. Noted on Day 9 to have significant diarrhea and
[2]; 10 mg/g suspension (0.5 mg/dose)
  Mortality: rabbits that died or were euthanized between Days 11 and 33: one of ten
[2]; 10 mg/g, 0.5 mg/dose
  Mortality (animals found dead or euthanized prior to study completion/number of animals in group): 1/10^(4)
Prostaglandin E2 (PGE2); 0.1% topical
  Levels of PGE2 in aqueous humor, Mean: 1.452 ng/mL
Prostaglandin E2 (PGE2); 0.5% topical
  Levels of PGE2 in aqueous humor, Mean: 1.384 ng/mL
Prostaglandin E2 (PGE2); 1% topical
  Levels of PGE2 in aqueous humor, Mean: 2.168 ng/mL
Myeloperoxidase (MPO); 0.1% topical
  MPO activity in iris-ciliary body, Mean: 0.971 MPO Unit/g
Myeloperoxidase (MPO); 0.1% treatment
  Δ/min (mean of the slope of the line recorded every 15 sec for 5 min): 0.051 and 0.042 (2×) and 0.045 and 0.050 and 0.031 (2×) and 0.036
  MPO activity in iris-ciliary body: 1.04 Unit/g and 1.00 Unit/g and 1.14 Unit/g and 1.06 Unit/g and 1.22 Unit/g and 0.61 Unit/g and 1.05 Unit/g and 0.65 Unit/g
Myeloperoxidase (MPO); 0.5% topical
  MPO activity in iris-ciliary body, Mean: 0.775 MPO Unit/g
Myeloperoxidase (MPO); 0.5% treatment
  Δ/min (mean of the slope of the line recorded every 15 sec for 5 min): 0.044 and 0.040 and 0.031 and 0.049 and 0.033 and 0.034 and 0.022 and 0.026
  MPO activity in iris-ciliary body: 0.85 Unit/g and 0.93 Unit/g and 0.79 Unit/g and 1.03 Unit/g and 0.75 Unit/g and 0.74 Unit/g and 0.54 Unit/g and 0.58 Unit/g
Myeloperoxidase (MPO); 1% topical
  MPO activity in iris-ciliary body, Mean: 0.542 MPO Unit/g
Myeloperoxidase (MPO); 1% treatment
  Δ/min (mean of the slope of the line recorded every 15 sec for 5 min): 0.024 and 0.033 and 0.017 and 0.018 (2×) and 0.016 and 0.052 and 0.013
  MPO activity in iris-ciliary body: 0.66 Unit/g and 0.68 Unit/g and 0.49 Unit/g and 0.40 Unit/g and 0.34 Unit/g and 1.02 Unit/g and 0.31 Unit/g and 0.43 Unit/g
[3]; 0.1% topical
  Pupillary diameter T1: −180 min: 6.5 mm and 7.0 mm and 7.5 mm
  Pupillary diameter T2: −5 min: 6.5 mm and 7.0 mm and 7.5 mm
  Pupillary diameter T3: +115 min: 5.0 mm and 6.0 mm and 6.5 mm and 5.5 mm
  Pupillary diameter Mean Δ(T3 − T1): −1.1 mm
[3]; 0.5% topical
  Pupillary diameter T1: −180 min: 8.0 mm and 7.0 mm and 7.5 mm
  Pupillary diameter T2: −5 min: 8.0 mm and 7.0 mm and 7.5 mm
  Pupillary diameter T3: +115 min: 6.5 mm and 6.0 mm and 7.0 mm
  Pupillary diameter Mean Δ(T3 − T1): −1.0 mm
[3]; 1% topical
  Pupillary diameter T1: −180 min: 6.0 mm and 6.5 mm
  Pupillary diameter T2: −5 min: 6.0 mm and 6.5 mm and 7.0 mm
  Pupillary diameter T3: +115 min: 5.5 mm and 5.0 mm and 6.0 mm
  Pupillary diameter Mean Δ(T3 − T1): −0.9 mm
[4]; 0.1% topical
  Clinical Score −5 min: 0
[4]; 0.1% topical, listed as BOL
  Clinical Score +115 min: 2 and 3
[4]; [9]
  Percentage of eyes with clinical score 2: 75%
  Percentage of eyes with clinical score 3: 25%
[4]; 0.1% topical, −5 min, N=8 eyes
  Percentage of eyes with clinical score 0: 100%
[4]; 0.1% topical, −180 min (basal), N=8 eyes
  Percentage of eyes with clinical score 0: 100%
[4]; 0.1% topical, −180 min (basal)
  Clinical Score −180 min: 0
[4]; 0.5% topical
  Clinical Score −5 min: 0
[4]; 0.5% topical, listed as BOL
  Clinical Score +115 min: 2 and 1
[4]; [10]
  Percentage of eyes with clinical score 1: 37.5%
  Percentage of eyes with clinical score 2: 62.5%
[4]; 0.5% topical, −5 min, N=8 eyes
  Percentage of eyes with clinical score 0: 100%
[4]; 0.5% topical, −180 min (basal), N=8 eyes
  Percentage of eyes with clinical score 0: 100%
[4]; 0.5% topical, −180 min (basal)
  Clinical Score −180 min: 0
[4]; 1% topical
  Clinical Score −5 min: 0
  Clinical Score +115 min: 2
[4]; 1% topical, +115 min, N=8 eyes
  Percentage of eyes with clinical score 2: 100%
[4]; 1% topical, −5 min, N=8 eyes
  Percentage of eyes with clinical score 0: 100%
[4]; 1% topical, −180 min (basal), N=8 eyes
  Percentage of eyes with clinical score 0: 100%
[4]; 1% topical, −180 min (basal)
  Clinical Score −180 min: 0
